Data on 43 molecules can be found in patent publication US7244727B2, “Fused bicyclic nitrogen-containing heterocycles” (Japan Tobacco Inc., priority 2002, dated 2007).

One data set has as its target T1, human DGAT1 (Homo sapiens, UniProt O75907).
T1 construct: made in house; host or cells: insect cells (sf9, sf21 or High Five) infected with baculovirus; total cell membranes
T1 sequence (O75907 1-488): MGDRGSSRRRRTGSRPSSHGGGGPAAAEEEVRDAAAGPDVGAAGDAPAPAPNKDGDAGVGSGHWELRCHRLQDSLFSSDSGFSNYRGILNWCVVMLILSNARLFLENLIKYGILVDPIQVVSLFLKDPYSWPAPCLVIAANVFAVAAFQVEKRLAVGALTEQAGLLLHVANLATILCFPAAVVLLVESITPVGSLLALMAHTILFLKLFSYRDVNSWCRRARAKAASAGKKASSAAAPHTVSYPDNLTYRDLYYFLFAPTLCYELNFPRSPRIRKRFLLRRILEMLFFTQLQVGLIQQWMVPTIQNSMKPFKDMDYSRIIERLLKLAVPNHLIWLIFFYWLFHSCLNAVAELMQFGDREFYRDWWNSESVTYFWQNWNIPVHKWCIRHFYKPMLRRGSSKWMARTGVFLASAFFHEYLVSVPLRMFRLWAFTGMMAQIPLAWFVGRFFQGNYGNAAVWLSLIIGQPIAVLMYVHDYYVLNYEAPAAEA
Kind of data set: DGAT Scintillation Proximity Assay (SPA) with membranes of insect cells expressing human flagtag DGAT1. It is filed as biochemical. The note with it: read-out: hDGAT1 IC50. Put shortly: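 Membranes (0.2 μg/well) from insect cells expressing human flag-tagged DGAT1 incubated with 10 μM compound and 200 μM dioleoyl glycerol substrate; mercuric chloride as inhibition control. Reaction stopped with WGA SPA beads in mercuric chloride, overnight bead coupling, then scintillation proximity signal read.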

Bounds are passed on as bounds.

With `Cc1nc(N)c2c(n1)OC(C)(C)C(c1ccc([C@H]3CC[C@H](CNC(N)=O)CC3)cc1)=N2` [Example 2-161], the melting point fell in the range of 219 to 221 °C. At human DGAT1, the IC50 fell in the range of 10 to 100 nM.
The corresponding values for `Cc1nc(N)c2c(n1)OC(C)(C)C(c1ccc([C@H]3CC[C@H](CNC4=NCCO4)CC3)cc1)=N2` [Example 2-162] are 216 to 250 °C and 10 to 100 nM.
The molecule `Cc1nc(N)c2c(n1)OC(C)(C)C(c1ccc([C@H]3CC[C@H](CNC(=O)C(O)C(C)(C)CO)CC3)cc1)=N2` (some centres unmarked) [Example 2-163] returned a melting point of 219 to 221 °C. Moreover, the IC50 on human DGAT1 is 10 to 100 nM.
Molecule `Cc1nc(N)c2c(n1)OC(C)(C)C(c1ccc([C@H]3CC[C@H](CNC(=O)C(O)CCO)CC3)cc1)=N2` (some centres unmarked) [Example 2-164] displayed a melting point of 222 to 225 °C. The IC50 on human DGAT1 lay in the range of 10 to 100 nM.
On the same counts, the results for `Cc1nc(N)c2c(n1)OC(C)(C)C(c1ccc([C@H]3CC[C@H](Cc4cc(O)n(C)n4)CC3)cc1)=N2` [Example 2-165] are more than 250 °C and 10 to 100 nM.
As for `Cc1nc(N)c2c(n1)OC(C)(C)C(c1ccc([C@H]3CC[C@H](CN4CCC(O)C4=O)CC3)cc1)=N2` (some centres unmarked) [Example 2-166], the melting point was in the range of 225 to 233 °C. For the same molecule, the concentration for half-maximal inhibition (IC50) on human DGAT1 lay in the range of 10 to 100 nM.
On the same counts, the results for `Cc1nc(N)c2c(n1)OC(C)(C)C(c1ccc([C@H]3CC[C@H](Cc4nc(=O)[nH]n4C)CC3)cc1)=N2` [Example 2-169] are more than 230 °C and 10 to 100 nM.
Take `CC1(C)Oc2ncnc(N)c2N=C1c1ccc([C@H]2CC[C@H](CCc3cc(O)[nH]n3)CC2)cc1` [Example 2-172]: the melting point was more than 250 °C. In addition, the IC50 at human DGAT1 is 10 to 100 nM.
On the same counts, the results for `CC1(C)Oc2ncnc(N)c2N=C1c1ccc([C@H]2CC[C@H](CCNS(C)(=O)=O)CC2)cc1` [Example 2-173] are 218 to 219 °C and 10 to 100 nM.
On the same counts, the results for `CC(=O)NCC[C@H]1CC[C@H](c2ccc(C3=Nc4c(N)ncnc4OC3(C)C)cc2)CC1` [Example 2-174] are 238 to 239 °C and 10 to 100 nM.
The corresponding values for `Cc1ccc(S(=O)(=O)NCC[C@H]2CC[C@H](c3ccc(C4=Nc5c(N)ncnc5OC4(C)C)cc3)CC2)cc1` [Example 2-175] are 230 to 231 °C and 10 to 100 nM.
The molecule `CC1(C)Oc2ncnc(N)c2N=C1c1ccc([C@H]2CC[C@H](CCNC(=O)CO)CC2)cc1` [Example 2-176] showed a melting point of 196 to 198 °C. For the same molecule, the IC50 on human DGAT1 was 10 to 100 nM.
As for `CCCNC(=O)CC[C@H]1CC[C@H](c2ccc(C3=Nc4c(N)ncnc4OC3(C)C)cc2)CC1` [Example 2-177], the melting point lay in the range of 198 to 200 °C. Besides, the IC50 at human DGAT1 was in the range of 10 to 100 nM.
On the same counts, the results for `CC1(C)Oc2ncnc(N)c2N=C1c1ccc([C@H]2CC[C@H](CCC(=O)N3CCC[C@H]3CO)CC2)cc1` [Example 2-178] are 143 to 160 °C and 10 to 100 nM.
The corresponding values for `CN(CCO)C(=O)CC[C@H]1CC[C@H](c2ccc(C3=Nc4c(N)ncnc4OC3(C)C)cc2)CC1` [Example 2-179] are 168 to 170 °C and 10 to 100 nM.
The corresponding values for `CC1(C)Oc2ncnc(N)c2N=C1c1ccc([C@H]2CC[C@H](CCC(=O)N3CCC(O)CC3)CC2)cc1` [Example 2-180] are 200 to 202 °C and 10 to 100 nM.
With `CC1(C)Oc2ncnc(N)c2N=C1c1ccc([C@H]2CC[C@H](CCNC(=O)[C@@H]3CCCN3)CC2)cc1` [Example 2-182], the melting point was in the range of 167 to 169 °C. Besides, the concentration for half-maximal inhibition (IC50) on human DGAT1 lay in the range of 10 to 100 nM.
On the same counts, the results for `CC1(C)Oc2ncnc(N)c2N=C1c1ccc([C@H]2CC[C@H](CCNC(=O)[C@@H]3C[C@@H](O)CN3)CC2)cc1` [Example 2-183] are 201 to 203 °C and 10 to 100 nM.
In turn, `Cc1csc(NCC[C@H]2CC[C@H](c3ccc(C4=Nc5c(N)ncnc5OC4(C)C)cc3)CC2)n1` [Example 2-184] gave a melting point of more than 250 °C. The concentration for half-maximal inhibition (IC50) at human DGAT1 lay in the range of 10 to 100 nM.
`Cc1ncc(CC[C@H]2CC[C@H](c3ccc(C4=Nc5c(N)ncnc5OC4(C)C)cc3)CC2)[nH]1` [Example 2-185] displayed a melting point of 193 to 194 °C. Further, at human DGAT1, the IC50 lay within 10 to 100 nM.
Turning to `CN(C)C(=O)CC[C@H]1CC[C@H](c2ccc(C3=Nc4c(N)ncnc4OC3(C)C)cc2)CC1` [Example 2-186], the melting point is 200 to 201 °C. Moreover, the IC50 at human DGAT1 was 10 to 100 nM.
In turn, `CC(C)NC(=O)CC[C@H]1CC[C@H](c2ccc(C3=Nc4c(N)ncnc4OC3(C)C)cc2)CC1` [Example 2-187] displayed a melting point of 206 to 208 °C. Besides, the IC50 at human DGAT1 was less than 10 nM.
On the same counts, the results for `CCN(C)C(=O)CC[C@H]1CC[C@H](c2ccc(C3=Nc4c(N)ncnc4OC3(C)C)cc2)CC1` [Example 2-188] are 173 to 175 °C and 10 to 100 nM.
The molecule `CCN(CC)C(=O)CC[C@H]1CC[C@H](c2ccc(C3=Nc4c(N)ncnc4OC3(C)C)cc2)CC1` [Example 2-189] showed a melting point of 192 to 194 °C. Also, the IC50 at human DGAT1 fell in the range of 10 to 100 nM.
The corresponding values for `CCCN(C)C(=O)CC[C@H]1CC[C@H](c2ccc(C3=Nc4c(N)ncnc4OC3(C)C)cc2)CC1` [Example 2-190] are 210 to 212 °C and 10 to 100 nM.
Turning to `Cc1nc(N)c2c(n1)OC(C)(C)C(c1ccc([C@H]3CC[C@H](CCC(=O)O)CC3)cc1)=N2` [Example 2-191], the melting point was more than 250 °C. Further, the IC50 on human DGAT1 was less than 10 nM.
On the same counts, the results for `Cc1nc(N)c2c(n1)OC(C)(C)C(c1ccc([C@H]3CC[C@H](CCC(=O)NS(C)(=O)=O)CC3)cc1)=N2` [Example 2-192] are more than 250 °C and less than 10 nM.
Consider `Cc1nc(N)c2c(n1)OC(C)(C)C(c1ccc([C@H]3CC[C@H](CCC(=O)NC(C)(C)CO)CC3)cc1)=N2` [Example 2-193], for which the melting point is more than 240 °C. Further, the IC50 on human DGAT1 is 10 to 100 nM.
The corresponding values for `Cc1nc(N)c2c(n1)OC(C)(C)C(c1ccc([C@H]3CC[C@H](CCC(=O)N4C[C@@H](O)[C@@H](O)C4)CC3)cc1)=N2` [Example 2-194] are 230 to 231 °C and 10 to 100 nM.
With `Cc1nc(N)c2c(n1)OC(C)(C)C(c1ccc([C@H]3CC[C@H](CCc4nc(=O)o[nH]4)CC3)cc1)=N2` [Example 2-195], the melting point is 250 °C (dec.). For the same molecule, the IC50 on human DGAT1 lay in the range of 10 to 100 nM.
On the same counts, the results for `Cc1nc(N)c2c(n1)OC(C)(C)C(c1ccc([C@H]3CC[C@H](CCc4nc(=O)s[nH]4)CC3)cc1)=N2` [Example 2-196] are 211 °C (dec.) and 10 to 100 nM.
On the same counts, the results for `Cc1nc(N)c2c(n1)OC(C)(C)C(c1ccc([C@H]3CC[C@H](CCc4nc(=O)on4C)CC3)cc1)=N2` [Example 2-197] are 250 °C (dec.) and 10 to 100 nM.
`Cc1nc(N)c2c(n1)OC(C)(C)C(c1ccc([C@H]3CC[C@H](CCc4nc(=O)[nH]n4C)CC3)cc1)=N2` [Example 2-198] returned a melting point of more than 250 °C. Besides, the half-inhibitory concentration (IC50) at human DGAT1 was in the range of 10 to 100 nM.
In turn, `Cc1nc(N)c2c(n1)OC(C)(C)C(c1ccc([C@H]3CC[C@H](CCc4nn[nH]n4)CC3)cc1)=N2` [Example 2-200] came in with a melting point of more than 250 °C. Besides, at human DGAT1, the 50% inhibitory concentration (IC50) was less than 10 nM.
On the same counts, the results for `Cc1nc(N)c2c(n1)OC(C)(C)C(c1ccc([C@H]3CC[C@H](CCC(=O)Nc4nn[nH]n4)CC3)cc1)=N2` [Example 2-201] are more than 250 °C and less than 10 nM.
The corresponding values for `Cc1nc(N)c2c(n1)OC(C)(C)C(c1ccc([C@H]3CC[C@H](CC(C)(C)C(=O)O)CC3)cc1)=N2` [Example 2-202] are more than 225 °C and 10 to 100 nM.
On the same counts, the results for `CC1(C)Oc2ncnc(N)c2N=C1c1ccc([C@H]2CC[C@H](C(=O)NCCO)CC2)cc1` [Example 2-203] are 235 to 237 °C and 10 to 100 nM.
Molecule `CC1(C)Oc2ncnc(N)c2N=C1c1ccc([C@H]2CC[C@H](C(N)=O)CC2)cc1` [Example 2-204] gave a melting point of more than 250 °C. Also, the IC50 at human DGAT1 lay within 10 to 100 nM.
On the same counts, the results for `CC1(C)Oc2ncnc(N)c2N=C1c1ccc([C@H]2CC[C@H](C(=O)NCC(=O)O)CC2)cc1` [Example 2-205] are more than 250 °C and 10 to 100 nM.
The molecule `CC1(C)Oc2ncnc(N)c2N=C1c1ccc([C@H]2CC[C@H](C(=O)N3CCC(C(=O)O)CC3)CC2)cc1` [Example 2-207] came in with a melting point of more than 250 °C. On human DGAT1, the IC50 was 10 to 100 nM.
On the same counts, the results for `CC1(C)Oc2ncnc(N)c2N=C1c1ccc([C@H]2CC[C@H](C(=O)N3CCCC3C(=O)O)CC2)cc1` (some centres unmarked) [Example 2-208] are 193 to 194 °C and 10 to 100 nM.
The corresponding values for `CC(=O)N[C@H]1CC[C@H](c2ccc(C3=Nc4c(N)ncnc4OC3(C)C)cc2)CC1` [Example 2-209] are more than 250 °C and 10 to 100 nM.
On the same counts, the results for `CC1(C)Oc2ncnc(N)c2N=C1c1ccc([C@H]2CC[C@H](NS(C)(=O)=O)CC2)cc1` [Example 2-210] are more than 250 °C and 10 to 100 nM.
